Results taken from patent US20100086599A1, “ORAL MODIFIED RELEASE FORMULATIONS” (KAIROSMED GMBH, priority 2006, published 2010).
“Also recorded” adds a separate entry of the source. Read-outs that look alike come from different tables or passages of the source. Values belong to the molecule of their own block, whether it stands above or below them.

Assays:
[1] = clinical Phase Ia study: pharmacokinetics of oral 8-PN; assay type: in vivo, women
Excerpt: The pharmacokinetic profile of 8-PN is characterized by a complete oral absorption, a low degree of metabolization (less than 60% of dose) and a high pre-systemic elimination (first-liver-pass excretion, about 55% of dose). The high and unexpected pre-systemic elimination leads to a collection of substantial dose parts in the bile fluid from which these dose parts are secreted into the duodenum when gastric signaling occurs with a meal uptake. Respective dose parts are then absorbed again and reach systemic circulation. Data were taken from the clinical Phase la study and represent two volunteers of the lowest dose group (50 mg 8-Prenylnaringenin).
Taking the total area under the curve as a measure for 8-Prenyinaringenin systemic availability, the percentage of the area under the second peak (generated by reabsorption of the pre-systemically eliminated and then biliary secreted dose parts) can be used to estimate those dose parts which undergo pre-systemic elimination after oral dosing. On an average of six women investigated this figure is 54±20%.
Re-increases in drug serum levels show re-absorption of dose parts collected in the bile fluid and subsequently secreted triggered by lunch.

GR = molecular target: T1, GR (Homo sapiens, UniProt P04150); conditions: cited from earlier work
T1 sequence (P04150 1-777): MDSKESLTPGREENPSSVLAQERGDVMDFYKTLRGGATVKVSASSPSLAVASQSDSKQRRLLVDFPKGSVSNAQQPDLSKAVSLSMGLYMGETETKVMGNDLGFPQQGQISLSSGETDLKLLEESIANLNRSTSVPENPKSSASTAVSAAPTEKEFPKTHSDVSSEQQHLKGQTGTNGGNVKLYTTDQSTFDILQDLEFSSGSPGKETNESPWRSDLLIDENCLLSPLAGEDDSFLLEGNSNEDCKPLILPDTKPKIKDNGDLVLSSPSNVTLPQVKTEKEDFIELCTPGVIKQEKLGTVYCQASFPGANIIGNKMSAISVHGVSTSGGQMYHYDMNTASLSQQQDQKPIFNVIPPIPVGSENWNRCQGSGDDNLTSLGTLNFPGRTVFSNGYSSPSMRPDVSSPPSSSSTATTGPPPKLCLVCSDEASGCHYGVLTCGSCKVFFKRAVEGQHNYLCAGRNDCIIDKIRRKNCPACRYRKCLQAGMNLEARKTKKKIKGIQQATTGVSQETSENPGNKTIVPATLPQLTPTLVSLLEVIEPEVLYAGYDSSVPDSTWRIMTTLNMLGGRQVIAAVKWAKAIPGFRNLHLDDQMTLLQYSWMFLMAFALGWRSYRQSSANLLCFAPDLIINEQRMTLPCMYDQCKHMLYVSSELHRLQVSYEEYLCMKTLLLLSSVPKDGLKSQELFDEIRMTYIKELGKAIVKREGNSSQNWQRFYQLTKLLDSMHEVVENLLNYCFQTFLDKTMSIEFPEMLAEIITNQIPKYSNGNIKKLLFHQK

estrogen receptor = conditions: cited from earlier work
CYP isoenzymes = experiment: metabolism by CYP isoenzymes; assay type: in vitro ADME
AR = molecular target: T2, AR (Homo sapiens, UniProt P10275); conditions: cited from earlier work
T2 sequence (P10275 1-920): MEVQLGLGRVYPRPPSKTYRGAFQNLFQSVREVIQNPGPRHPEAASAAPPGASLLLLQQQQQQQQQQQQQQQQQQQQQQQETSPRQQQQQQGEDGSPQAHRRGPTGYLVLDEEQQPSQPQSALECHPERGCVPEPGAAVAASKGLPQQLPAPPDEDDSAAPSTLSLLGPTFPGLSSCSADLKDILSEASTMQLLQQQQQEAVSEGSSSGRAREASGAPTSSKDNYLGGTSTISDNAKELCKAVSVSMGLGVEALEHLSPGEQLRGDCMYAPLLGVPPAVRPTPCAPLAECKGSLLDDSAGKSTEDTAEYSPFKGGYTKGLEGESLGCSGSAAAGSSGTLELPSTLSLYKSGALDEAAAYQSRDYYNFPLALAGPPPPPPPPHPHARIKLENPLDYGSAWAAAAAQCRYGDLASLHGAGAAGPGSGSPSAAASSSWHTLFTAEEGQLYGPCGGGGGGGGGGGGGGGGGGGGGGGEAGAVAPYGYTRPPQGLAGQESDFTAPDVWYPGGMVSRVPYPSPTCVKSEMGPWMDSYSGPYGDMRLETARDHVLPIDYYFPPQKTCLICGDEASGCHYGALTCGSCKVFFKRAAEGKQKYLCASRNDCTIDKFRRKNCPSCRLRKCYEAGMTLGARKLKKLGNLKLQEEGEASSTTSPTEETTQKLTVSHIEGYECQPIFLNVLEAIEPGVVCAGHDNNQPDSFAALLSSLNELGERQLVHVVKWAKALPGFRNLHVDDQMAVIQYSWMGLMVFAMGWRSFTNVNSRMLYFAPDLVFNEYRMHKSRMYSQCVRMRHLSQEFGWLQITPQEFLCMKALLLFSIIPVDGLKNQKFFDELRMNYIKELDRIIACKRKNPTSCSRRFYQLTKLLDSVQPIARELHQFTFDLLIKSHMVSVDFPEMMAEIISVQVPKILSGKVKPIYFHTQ

PR = molecular target: T3, PR (Homo sapiens, UniProt P06401); conditions: cited from earlier work
T3 sequence (P06401 1-933): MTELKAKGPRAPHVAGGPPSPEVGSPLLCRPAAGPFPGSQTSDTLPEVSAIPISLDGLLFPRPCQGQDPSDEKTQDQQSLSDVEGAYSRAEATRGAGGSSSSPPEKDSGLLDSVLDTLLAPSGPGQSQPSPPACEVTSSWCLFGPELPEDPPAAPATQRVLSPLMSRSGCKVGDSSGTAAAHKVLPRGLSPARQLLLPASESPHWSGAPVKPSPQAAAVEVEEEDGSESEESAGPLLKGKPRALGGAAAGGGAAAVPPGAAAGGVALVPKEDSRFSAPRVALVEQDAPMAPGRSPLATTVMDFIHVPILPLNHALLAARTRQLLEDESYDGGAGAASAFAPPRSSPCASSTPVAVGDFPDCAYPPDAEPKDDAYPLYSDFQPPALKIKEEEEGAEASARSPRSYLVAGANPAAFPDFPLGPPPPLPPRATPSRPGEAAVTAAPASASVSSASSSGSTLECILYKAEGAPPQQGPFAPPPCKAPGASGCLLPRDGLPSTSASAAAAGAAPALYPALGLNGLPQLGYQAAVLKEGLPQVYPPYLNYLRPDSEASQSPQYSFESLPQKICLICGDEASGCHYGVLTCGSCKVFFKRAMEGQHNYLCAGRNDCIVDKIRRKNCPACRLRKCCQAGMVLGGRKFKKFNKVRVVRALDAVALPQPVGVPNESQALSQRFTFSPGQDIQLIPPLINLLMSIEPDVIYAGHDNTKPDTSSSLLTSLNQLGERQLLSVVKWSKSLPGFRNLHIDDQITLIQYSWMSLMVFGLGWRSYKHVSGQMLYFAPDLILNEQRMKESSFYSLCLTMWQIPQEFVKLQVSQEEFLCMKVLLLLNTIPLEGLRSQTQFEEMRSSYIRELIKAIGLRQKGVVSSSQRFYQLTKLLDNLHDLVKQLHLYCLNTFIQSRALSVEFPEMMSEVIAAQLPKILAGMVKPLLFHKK

[2] = pH-dependent solubility and in vitro dissolution of 8-PN; assay type: physicochemical
Excerpt: The solid oral modified release formulations of this invention show a pH-independent drug release in vitro. This is important as the pH varies considerably in the gastro-intestinal tract and continuous release should be achieved independent of the pH. In contrast to C21-progestins (MPA, CPA, DRSP), however, the solubility of 8-PN is pH-dependent. […] The low acid solubility property of 8-Prenylnaringenin results in vitro in slow drug dissolution at pH 1, whereas the dissolution is fast at higher pH-values such as pH 6.8. The resulting dissolution profiles are different at different pH-values. This problem is solved by the solid oral modified release formulation of this invention. […]

SHBG or CBG serum levels = conditions: in vivo; cited from earlier work
SHBG = molecular target: T4, SHBG (Homo sapiens, UniProt P04278); conditions: cited from earlier work
T4 sequence (P04278 30-402): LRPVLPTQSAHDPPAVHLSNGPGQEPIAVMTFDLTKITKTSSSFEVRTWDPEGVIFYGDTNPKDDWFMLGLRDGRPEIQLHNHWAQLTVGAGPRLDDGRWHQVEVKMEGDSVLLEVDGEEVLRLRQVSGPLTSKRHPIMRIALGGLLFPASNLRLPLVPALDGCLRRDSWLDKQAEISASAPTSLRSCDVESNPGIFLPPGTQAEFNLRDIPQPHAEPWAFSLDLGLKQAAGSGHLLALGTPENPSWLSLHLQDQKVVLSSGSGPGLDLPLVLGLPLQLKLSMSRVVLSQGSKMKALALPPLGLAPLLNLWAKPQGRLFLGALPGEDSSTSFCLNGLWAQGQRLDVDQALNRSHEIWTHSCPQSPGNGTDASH

[3] = low pH-values; cited from earlier work
[4] = cited from earlier work
[5] = cited from earlier work; remark: listed apart in the source
[6] = 3 mg oral, daily repeated administration
[7] = single oral intake of 3 mg DRSP

degree of metabolization ([1]; oral): less than 60 % of dose
oral absorption ([1]; oral): complete
pre-systemic elimination (first-liver-pass excretion) ([1]; oral): about 55 % of dose
CV of mean AUC ([1]; oral dose 250 mg): 42%
CV of mean AUC ([1]; oral dose 750 mg): 29%
percentage of the area under the second peak of total AUC (dose parts undergoing pre-systemic elimination) ([1]; oral, average of six women): 54±20%
metabolism by CYP isoenzymes (CYP isoenzymes; listed as 8-Prenylnaringenin): high metabolic stability
solubility ([2]; higher at higher pH-values, low at lower pH-values): pH-dependent
drug dissolution in vitro ([2]; pH 1): slow
drug dissolution in vitro ([2]; pH 6.8): fast
SMILES: CC(C)=CCc1c(O)cc(O)c2c1OC(c1ccc(O)cc1)CC2=O (stereo not shown) [Example 8-PN, 5,7-Dihydroxy-2-(4-hydroxyphenyl)-8-(3-methylbut-2-enyl)-chroman-4-on]
binding or activation of the GR (GR): devoid of binding or activation
anti-estogenic activity (estrogen receptor): without any anti-estogenic activity
metabolism by CYP isoenzymes (CYP isoenzymes): surprisingly low extent of metabolism; also recorded: high metabolic stability
binding or activation of the AR (AR): devoid of binding or activation
binding or activation of the PR (PR): devoid of binding or activation

SMILES: C[C@]12CCC(=O)C=C1[C@@H]1C[C@@H]1[C@H]1[C@@H]3[C@@H]4C[C@@H]4[C@@]4(CCC(=O)O4)[C@@]3(C)CC[C@@H]12 [DRSP, Drospirenone]
suppression of EE induced SHBG or CBG serum levels (SHBG or CBG serum levels): does not suppress
binding to SHBG (SHBG): does not bind
stability (opening of carbolactone ring to the inactive acid) [3]: sensitive to low pH-values
AUC [4, 6]: about 920 ng×h/ml
maximum serum level [4, 6]: about 80 ng/ml
apparent volume of distribution ([4]; in vivo): 4 L/kg
disposition half-life ([4]; in vivo): 31 h
metabolism ([4]; mainly by CYP3A4): only slightly metabolized
oral absorption ([4]; oral): complete
AUC0-24h [4, 7]: 288 ng·h/mL
maximum serum levels [4, 7]: 37 ng/mL
time at which maximum serum levels were reached [4, 7]: 1.7 h

SMILES: C[C@]12CC[C@@H]3c4ccc(O)cc4CC[C@H]3[C@@H]1CC[C@@H]2O [Example E2, 17β-estradiol]
coefficient of variation (CV) of the mean AUC ([5]; oral 2 mg E2, N=14): 127%
coefficient of variation (CV) of the mean AUC ([5]; oral 4 mg E2, N=14): 91%
coefficient of variation (CV) of the mean AUC ([5]; oral 8 mg E2, N=14): 70%
oral bioavailability ([5]; oral): 1-3 % of dose
